From patent US20090176841A1, “NOVEL 6-5 SYSTEM BICYCLIC HE[…] ITS PHAR[…]” (Sanwa Kagaku Kenkyusho Co., Ltd., priority 2006, published 2009)

How the values were obtained:
recombinant human TRα = molecular target: T1, recombinant human TRα (Homo sapiens, UniProt P10827); test: biochemical; settings: TR[…] (IC50, nM), displacement of 125I-T3 (0.16 nM)
T1 sequence (P10827 190-410 isoform P10827-2): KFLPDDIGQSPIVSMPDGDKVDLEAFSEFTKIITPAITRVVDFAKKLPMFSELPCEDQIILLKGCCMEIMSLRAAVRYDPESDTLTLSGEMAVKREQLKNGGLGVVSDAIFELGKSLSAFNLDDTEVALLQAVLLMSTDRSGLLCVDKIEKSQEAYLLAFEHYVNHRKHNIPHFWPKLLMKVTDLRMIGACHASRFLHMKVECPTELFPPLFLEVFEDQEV
Text: (§1) Thyroid Hormone Receptor Binding Test
(§2) (1) Preparation of Fused Protein Having Ligand Binding Region of Thyroid Hormone Receptor
(§3) Human TRα and human TRβ ligand binding domains were expressed in Escherichia coli as a fused protein (recombinant human TRα or recombinant human TRβ) having TRα and TRβ ligand binding domains at a C-terminus of His-Patch Thioredoxin using the His-Patch Thioredoxin fusing protein expressing system (Invitrogen).
(§4) A nucleotide sequence of a region corresponding to the fused protein was confirmed by DNA sequence analysis.
(§5) Escherichia coli by which the fused protein had been subjected to expression inducement were collected by a centrifugation method, and ground using ultrasound to prepare a ground cell liquid containing the fused protein. The ground cell liquid was centrifuged at 15000 rpm for about 30 minutes, and a solution containing the fused protein from the supernatant using a nickel chelating column was obtained. An NAP-10 column was replaced with a binding solution (20 mM, Tris-HCl, 0.15 M NaCl, 8% Glycerol, 0.1% BSA, 1 mM EDTA, 10 mM 2-melcaptethanol). The resulting binding solution containing the fused protein was frozen and stored at −70° C. or lower.
(§6) (2) Binding Affinity for Thyroid Hormone Receptor
(§7) This binding solution (60 μL) was added to all wells of a 96-well plate (MILLIPORE MultiScreen-HV, Cat. No. MANVN4550, Lot. No. F4SN86613). […] 80 μL of SephadexG25 was added to each well of MultiScreen-HV (MILLIPORE, Cat. No. MANVN4550, Lot. No. F4SN86613), the binding solution was added to sufficiently swell, and this was centrifuged at 600×g for 1 minute to prepare a column of SephadexG25. […] Again, 25 μL untreated binding solution was overlaid on the SephadexG25 column, and this was immediately centrifuged at 600×g for 1 minute. […] As an amount of recombinant human TRα or recombinant human TRβ used in the present test, an amount by which proper radioactivity is obtained in a range where an addition amount of the receptor and an amount of the complex in the above test system, was used.
(§8) This was divided by the total complex amount to calculate a binding rate as the following equation:
(§9) Binding rate=remaining complex amount/total complex amount

recombinant human TRβ = molecular target: T2, recombinant human TRβ (Homo sapiens, UniProt P10828); test: biochemical; settings: TR[…] (IC50, nM), displacement of 125I-T3 (0.16 nM)
T2 sequence (P10828 244-461): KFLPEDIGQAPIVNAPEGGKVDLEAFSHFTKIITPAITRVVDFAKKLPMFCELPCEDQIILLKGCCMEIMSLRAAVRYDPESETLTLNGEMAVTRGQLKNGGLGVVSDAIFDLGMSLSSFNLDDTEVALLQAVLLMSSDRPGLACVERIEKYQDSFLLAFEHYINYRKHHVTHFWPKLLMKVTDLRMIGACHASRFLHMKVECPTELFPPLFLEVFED
Text: as §1, §2, §3, §4, §5, §6, §7, §8, §9

## Cc1ccc(NC(=O)C(C)C(=O)O)c2cc(C)n(Cc3ccc(O)c(C(C)C)c3)c12 (stereo not drawn) [Example 89]
Recombinant human TRα
  IC50: 870 nM
Recombinant human TRβ
  IC50: 120 nM

## Cc1ccc(NC(=O)C(=O)O)c2cc(C)n(Cc3ccc(O)c(C(C)C)c3)c12 [Example 85]
Recombinant human TRα
  IC50: 24 nM
Recombinant human TRβ
  IC50: 3.1 nM

## Cc1ccc(NC(=O)CC(=O)O)c2cc(C)n(Cc3ccc(O)c(Br)c3)c12 [Example 65]
Recombinant human TRα
  IC50: > 10000 nM
Recombinant human TRβ
  IC50: 470 nM

## CC(C)c1cc(Cn2c(C(F)(F)F)cc3c(NC(=O)C(=O)O)cccc32)ccc1O [Example 119]
Recombinant human TRα
  IC50: 57 nM
Recombinant human TRβ
  IC50: 15 nM

## Cc1cc(NC(=O)CC(=O)O)cc2ccn(Cc3ccc(O)c(C(C)C)c3)c12 [Example 109]
Recombinant human TRα
  IC50: > 10000 nM
Recombinant human TRβ
  IC50: 600 nM

## Cc1ccc(NC(=O)C(=O)O)c2cc(C)n(Cc3ccc(O)c(C(F)(F)F)c3)c12 [Example 114]
Recombinant human TRα
  IC50: 180 nM
Recombinant human TRβ
  IC50: 49 nM

## Cc1ccc(NC(=O)C(=O)O)c2ccn(Cc3ccc(O)c(C(C)C)c3)c12 [Example 79]
Recombinant human TRα
  IC50: 5200 nM
Recombinant human TRβ
  IC50: 130 nM

## CCOC(=O)C(=O)Nc1cccc2c1c(C)c(C)n2Cc1ccc(O)c(C(C)C)c1 [Example 19]
Recombinant human TRα
  IC50: 280 nM
Recombinant human TRβ
  IC50: 56 nM

## Cc1ccc(NC(=O)CC(=O)O)c2cc(C(F)(F)F)n(Cc3ccc(O)c(C(C)C)c3)c12 [Example 95]
Recombinant human TRα
  IC50: 98 nM
Recombinant human TRβ
  IC50: 5 nM
